# Source: publication PMC8765435, “In Vitro Antimalarial Activity of Inhibitors of the Human GTPase Rac1” (Antimicrobial Agents and Chemotherapy, 2022)
# Where two headings read alike, the source gives them in different places.
# Experiments:
# [1] = test system: 3D7 immature gametocytes; experiment: Gametocyte viability luminescence assay, immature gametocytes; type: cell-based, Plasmodium falciparum; details: 72 h, read-out: Mean IC50 ± SD, 3D7 immature gametocytes
# Method: (§1) Chloroquine (CQ)-sensitive (D10, wild-type 3D7, or transgenic 3D7elo1-pfs16-CBG99) and CQ-resistant (W2) strains of P. falciparum were cultured as described previously ([58]), with slight modifications, as detailed in the supplemental material.
# (§2) Asexual parasite growth was determined spectrophotometrically (optical density at 650 nm [OD650]) by measuring the activity of parasite lactate dehydrogenase (pLDH), according to a modified version of the method of Makler et al. ([59]). Gametocyte viability was measured by a luminescence method described previously ([60]). Details for the two methods are reported in the supplemental material. From either the OD or ALU (arbitrary luminescence units), the percentages of viability were calculated according to the formula 100 × (treated sample signal − blank signal)/(untreated control signal − blank signal). The blank for the pLDH assay was uninfected RBCs at the same hematocrit as that of parasitized RBCs, and the blank for the luminescence assay was parasites treated with a high dose of methylene blue. […]
# (§3) strain (wild type or transgenic 3D7elo1-pfs16-CBG99 strain) was cultured in similar conditions, except for 10% naturally clotted Human O+ serum instead of AlbuMaxII and human type O-positive instead of A-positive RBCs. […]
# (§4) in a standard gas mixture consisting of 1% O2, 5% CO2, 94% N2. Immature (stage II-III) and mature (stage V) gametocytes were obtained as described1. Briefly, cultures were diluted to 0.5% parasitemia at 5% HCT, and the medium was changed daily until parasites were stressed by nutrient deprivation. N-acetylglucosamine (NAG) (Sigma-Aldrich) 50 mM was then added to clear residual asexual parasites: Stage II and III gametocytes were obtained 4 days after NAG addition to the culture, while stage IV and V gametocytes were used 11 to 13 days from NAG addition. Gametocyte stages were routinely checked on Giemsa-stained smears. […]
# (§5) Drug treated gametocyte cultures were transferred to 96-well black microplates and D-luciferin (1 mM in citrate buffer 0.1 M, pH 5.5) was added at a 1:1 volume ratio. Luminescence measurements were performed after 10 min with 500 ms integration time. Gametocytes treated
# [2] = biological target: T1, Rac1 (Homo sapiens, UniProt P63000); design: endogenous in cells; method as in PMID 24040362; details: Rac1 activity in 22Rv1 human prostate cancer cells; cited from earlier work
# [3] = test system: P. falciparum asexual parasites, chloroquine-resistant W2 strain; experiment: Drug susceptibility assay (pLDH), asexual parasites, W2 strain; type: cell-based, Plasmodium falciparum
# Method: as §1, §2
# (§6) The CQ-sensitive (D10) and the CQ-resistant (W2) strains were maintained at 5% hematocrit […]
# (§7) supplemented with 1% AlbuMaxII (lipid-rich bovine serum albumin) (Invitrogen), 0.01% hypoxantine (Sigma), 20mM Hepes (EuroClone), 2 mM glutamine (EuroClone). […]
# (§8) In vitro P. falciparum drug susceptibility assay […]
# (§9) plate were transferred to a plate containing 100µl of Malstat reagent (0.11% [vol/vol] Triton- […]
# (§10) dinucleotide [APAD] [Sigma-Aldrich], adjusted to pH 9 with 1 M HCl) and 25 µl of PES/NBT […]
# (§11) pLDHassay. The plate was read at a wavelength of 650 nm using a microplate reader, Synergy4 […]
# (§12) Uninfected RBC at the same HCT than parasites were used as blank. […]
# [4] = test system: 3D7 mature gametocytes; experiment: Gametocyte viability luminescence assay, mature gametocytes; type: cell-based, Plasmodium falciparum
# Method: as §1, §2, §3, §4, §5
# [5] = test system: HMEC-1 human microvascular endothelial cells; experiment: Cell cytotoxicity MTT assay; type: cell-based; details: for IC50: read-out: Mean HMEC-1 IC50 ± SD; for SI (selectivity index): ratio IC50 against HMEC-1 cells / IC50 against D10 asexual parasites
# Method: Cytotoxicity was evaluated on human microvascular endothelial cells (HMEC-1) as detailed in the supplemental material. […] Plates were then read on a microplate reader (Synergy 4; BioTek) at a wavelength of 550 nm (reference, 650 nm). […] All tests were performed in duplicate at least three times.
# The selectivity index (SI) is the ratio between the cytotoxic IC50 value against HMEC-1 cells and the parasitic IC50 value against the D10 strain and indicates the compound selectivity for the parasite.
# Cytotoxicity was evaluated on Human Microvascular Endothelial Cells (HMEC-1) maintained
# and 2 mM L-glutamine. Cells were seeded in 96 well flat bottom tissue culture clusters (1.5x104
# cells/well), let adhere overnight and treated with serial dilutions of test compounds . […]
# [6] = test system: P. falciparum asexual parasites, chloroquine-sensitive D10 strain; experiment: Drug susceptibility assay (pLDH), asexual parasites, D10 strain; type: cell-based, Plasmodium falciparum; details: for antimalarial activity (in words): asexual and sexual P. falciparum parasites
# Method: as §1, §2, §6, §7, §8, §9, §10, §11, §12
# [7] = test system: P. falciparum asexual parasites, chloroquine-sensitive D10 strain; design: method as in PMID 33328606; details: reported previously, read-out: Mean IC50 ± SD, D10; cited from earlier work
# [8] = test system: P. falciparum asexual parasites, chloroquine-resistant W2 strain; design: method as in PMID 33328606; details: reported previously, read-out: Mean IC50 ± SD, W2; cited from earlier work
# [9] = test system: F3II mammary carcinoma cells; design: method as in PMID 24066799; details: F3II mammary carcinoma cell proliferation; cited from earlier work
# [10] = test system: Rac1; design: method as in PMID 17932039; details: Rac1 activity in U87MG glioma cells; cited from earlier work
# [11] = test system: REF-52 rat embryo fibroblasts; design: method as in PMID 19549603; details: Actin stress fiber formation in REF-52 rat embryo fibroblasts; cited from earlier work
# [12] = test system: Rac1; design: method as in PMID 21433368; details: Rac1 activity in EGF-stimulated NIH 3T3 fibroblasts; cited from earlier work
# [13] = test system: Rac1; design: method as in PMID 20008126; details: Rac1 activity in Swiss 3T3 embryonic mouse fibroblasts; cited from earlier work
# [14] = test system: Rac1; design: method as in PMID 15128949; details: Rac1 activity in PDGF-stimulated NIH 3T3 fibroblasts; cited from earlier work
# [15] = biological target: T1, Rac1; design: endogenous in cells; details: Rac1 activity in human smooth muscle cells; cited from earlier work
# [16] = Plasmodium falciparum, 3D7, stage II-III gametocytes
# [17] = Plasmodium falciparum, W2, 72 h, asexual parasites, CQ-resistant W2 strain, 72 h, pLDH, read-out: Mean IC50 ± SD, W2
# [18] = asexual parasites, CQ-resistant W2 strain, 72 h, pLDH, read-out: Mean IC50 ± SD, W2
# [19] = Plasmodium falciparum, 3D7, stage V gametocytes, 72 h, luminescence, read-out: Mean IC50 ± SD, 3D7 mature gametocytes
# [20] = Homo sapiens, HMEC-1, MTT, 72 h
# [21] = stage V gametocytes, 72 h, luminescence, read-out: Mean IC50 ± SD, 3D7 mature gametocytes
# [22] = asexual parasites, CQ-sensitive D10 strain, 72 h, pLDH, read-out: Mean IC50 ± SD, D10
smiles,measurement,setting,value
Cc1cc2cc(Nc3ccnc(Nc4ccc5[nH]c(C)cc5c4)n3)ccc2[nH]1 [Aza-1],IC50,[1]; [16],1250 ± 480 nM
same,IC50,[2],5 to 20 µM
same,IC50,[3]; [17],< 1 µM
same,IC50,[3]; [18],0.76 ± 0.27 µM
same,IC50,[4]; [19],7.23 ± 2.12 µM
same,IC50,[5]; [20],12.3 ± 6.11 µM
same,SI (selectivity index),[5],48.9
CCN(CC)CCCC(C)Nc1ccnc2cc(Cl)ccc12 (stereo not drawn) [Chloroquine],IC50,"[3]; Plasmodium falciparum, W2, 72 h, read-out: Mean IC50 ± SD, W2",0.42 ± 0.08 µM
same,IC50,"[6]; Plasmodium falciparum, D10, 72 h, read-out: Mean IC50 ± SD, D10",0.02 ± 0.003 µM
Cc1cc(C)cc(NC(N)=Nc2ccccc2C(F)(F)F)c1 [Compound 1A116],IC50,[1]; stage II-III gametocytes,78100 ± 17700 nM
same,IC50,[7],3.21 ± 1.17 µM
same,IC50,[8],6.89 ± 1.41 µM
same,IC50,[9],4 µM
same,IC50,[4]; [21],56.6 ± 21.3 µM
same,IC50,"[5]; MTT, 72 h",132 ± 37.3 µM
CC1CCCN(S(=O)(=O)c2ccc(NC(=O)c3cc(-c4ccccc4O)n[nH]3)cc2)C1 (stereo not drawn) [Compound 3],IC50,[1]; [16],2260 ± 220 nM
same,melting point,,254 to 258 °C
same,IC50,"[3]; Plasmodium falciparum, W2, 72 h, read-out: Mean IC50 ± SD, W2, asexual parasites, CQ-resistant W2 strain, 72 h, pLDH",< 1 µM
same,IC50,"[3]; read-out: Mean IC50 ± SD, W2, asexual parasites, CQ-resistant W2 strain, 72 h, pLDH",0.52 ± 0.02 µM
same,IC50,[4]; [19],21.9 ± 2.71 µM
same,IC50,"[6]; Plasmodium falciparum, D10, 72 h, read-out: Mean IC50 ± SD, D10, asexual parasites, CQ-sensitive D10 strain, 72 h, pLDH",< 1 µM
same,IC50,"[6]; read-out: Mean IC50 ± SD, D10, asexual parasites, CQ-sensitive D10 strain, 72 h, pLDH",0.66 ± 0.05 µM
same,IC50,"[5]; Homo sapiens, HMEC-1, 72 h",10.6 ± 1.19 µM
CC1CCCN(S(=O)(=O)c2cccc(NC(=O)c3cc(-c4ccccc4O)n[nH]3)c2)C1 (stereo not drawn) [Compound 3′],IC50,[1]; [16],2130 ± 430 nM
same,IC50,[3]; [17],1.24 ± 0.13 µM
same,IC50,[4]; [19],26.6 ± 3.7 µM
same,IC50,"[6]; Plasmodium falciparum, D10, 72 h, asexual parasites, CQ-sensitive D10 strain, 72 h, pLDH, read-out: Mean IC50 ± SD, D10",2.76 ± 0.12 µM
same,IC50,[5]; [20],16 ± 0.44 µM
same,SI (selectivity index),[5],5.8
O=c1cc(CN2CCOCC2)occ1OCCCCCSc1ccnc2cc(C(F)(F)F)ccc12 [EHT1864],IC50,[1]; stage II-III gametocytes,> 50000 nM
same,IC50,[7],3.88 ± 0.74 µM
same,IC50,[8],7.75 ± 1.82 µM
same,IC50,[10],10 to 50 µM
same,IC50,[4]; [21],32.6 ± 0.92 µM
same,IC50,"[5]; MTT, 72 h",48.5 ± 1.23 µM
Cc1cc(/C=c2/sc3nc4ccccc4n3c2=O)c(C)n1-c1ccccc1 [ITX3],IC50,[11],50 to 100 µM
same,IC50,[3]; [18],> 50 µM
same,antimalarial activity (in words),[6],no effect
same,IC50,[6]; [22],> 50 µM
COc1ccc(C2CC(c3ccccc3)=NN2c2ccc(S(N)(=O)=O)cc2)cc1 (stereo not drawn) [ML141],IC50,[12],~10 µM
same,IC50,[3]; [18],17.3 ± 1.84 µM
same,IC50,[6]; [22],10.7 ± 0.29 µM
O=C(C#Cc1ccccc1)c1cccc([N+](=O)[O-])c1 [MLS000532223],IC50,[13],~10 µM
same,IC50,[3]; [18],9.51 ± 1.66 µM
same,IC50,[6]; [22],6.89 ± 0.73 µM
CN(C)c1ccc2nc3ccc(=[N+](C)C)cc-3sc2c1 [Methylene blue],IC50,[1]; [16],30 ± 10 nM
same,IC50,[4]; [19],0.12 ± 0.03 µM
CCN(CC)CCCC(C)Nc1nc(C)cc(Nc2ccc3nc(C)cc(N)c3c2)n1 (stereo not drawn) [NSC23766],IC50,[14],[…]
same,IC50,[1]; stage II-III gametocytes,15300 ± 3700 nM
same,IC50,[3]; [18],4.05 ± 0.5 µM
same,IC50,[4]; [21],30.8 ± 3.09 µM
same,IC50,[6]; [22],5.02 ± 1.47 µM
same,IC50,"[5]; MTT, 72 h",154 ± 38.5 µM
Cc1ccc(NC(=O)c2cccc(OCc3c(C)noc3C)c2)cc1S(N)(=O)=O [Rac1 inhibitor II],IC50,[15],12.2 µM
same,IC50,[3]; [18],37.5 ± 8.67 µM
same,IC50,[6]; [22],11.9 ± 7.37 µM
Cc1cc(C)nc(NS(=O)(=O)c2ccc(NC(=S)NC(=O)COc3ccc(Br)cc3Cl)cc2)n1 [ZCL278],IC50,[3]; [18],> 50 µM
same,IC50,"[4]; Table S2, CDC42 inhibitors, read-out: IC50, 3D7 mature gametocytes",63.5 ± 27.3 µM
same,antimalarial activity (in words),[6],not active
same,IC50,[6]; [22],> 50 µM
Cc1cc(C)nc(N=C(N)Nc2ccccc2C(F)(F)F)n1 [ZINC69391],IC50,[3]; [18],12.6 ± 5.25 µM
same,IC50,[9],61 µM
same,IC50,[6]; [22],17.5 ± 4.64 µM
